From patent US3954778A, “Aminoacetyl derivatives of 2,3-diphenyl cyclopropyl amine” (priority 1970, dated 1976)
Structures can show the parent of a compound that is named as a salt. Where two headings read alike, the source gives them in different places.

Assays:
male albine Swiss mice [1] = test: Shock by cardiazol (M.M.S.); assay type: in vivo; conditions: for ED50: Mus musculus
Method: (§1) Materials and methods. The animals used to perform the pharmacological tests with the compounds of the invention have been, unless the contrary is explicitly indicated, male albine Swiss mice weighing 19-23 g; each animal has been used only once.
(§2) The compounds have been administered as hydrochlorides, under skin (0.1 ml/10 g) 30 minutes ante; for determining the LD50, the compounds have been administered by intraperitoneal route and were considered deaths occured in the 72 hours following the treatment.
(§3) As reference compounds there was used: ethosuximide injected under skin 30 minutes ante (before); Phenurone per os 60 minutes ante; phenobarbital sodium salt under skin 30 minutes ante, trimethadione under skin 30 minutes ante; primidone per os 6 hours ante and Mephenesin under skin 30 minutes ante.
Under such conditions the results obtained with the reference compounds are in good agreement with those reported in the art for the same compounds (E. A. Swinyard, W. C. Brown, L. S. Goodman --J. Pharmacol., 1952, 106, 3 19). Shock by cardiazol (M.M.S.) -- 38 mg/kg of cardiazol, in the form of a 0.38% aqueous solution, is quickly injected in the dorsal vein of the mouse's tail (L. S. Goodman, M. Singh Grewal, W. C. Brown, E. A. Swinyard -- J. Pharmacol. 1953, 108, 168). The animals are considered as protected when the extensor phase of the hind paws is eliminated during the tonic crisis.
(§4) The so-obtained data have been elaborated by calculating the ED50 and the LD50 according to Lichtfield-Wilcoxon's method (J. Pharmacol. 1949, 96, 99).

male albine Swiss mice [2] = test: Electroshock (M.E.S.); assay type: in vivo; conditions: for ED50: Mus musculus
Method: as §1, §2, §3
Electroshock (M.E.S.) -- The method adopted in making the electroshock is Cashin C.
as §4

rat = test: Inhibition of calcium chloride induced cardiac arrhythmias in rats; assay type: in vivo; conditions: for minimal effective dose: read-out: active dose (complete inhibition of cardiac arrhythmias)
Method: The new compounds of the invention are deprived of MAO-inhibiting activity in live rats, both on the mithocondres of hepatic tissue and on the mithocondres of homogenatous of cerebral tissue, even if administered in doses of 100-200 mg/kg per os. […] In particular the activity in cardiac arrhythmias of N-pyrrolidinoacetyl-2,3-cis, trans-diphenylcyclopropylamine has been studied by experimentally inducing arrhythmias in rats by means of calcium chloride, and in dogs by means of adrenaline.
The experiments in rats have been performed as follows:
There was determined the inhibiting effect of N-pyrrolidine acetyl-2,3-cis,trans-diphenylcyclopropylamine hydrochloride on the cardiac arrhythmias arising within the 5 minutes following the calcium chloride administration in comparison with quinidine, procaine and propranolol.

Acute toxicity LD50 = conditions: mouse, in vivo, ip
Method: as §1, §2, §4

dog = test: Protection from adrenaline induced cardiac arrhythmias in dogs; assay type: in vivo; conditions: 1 mg/kg intravenous
Method: The new compounds of the invention are deprived of MAO-inhibiting activity in live rats, both on the mithocondres of hepatic tissue and on the mithocondres of homogenatous of cerebral tissue, even if administered in doses of 100-200 mg/kg per os. As found also with other anticonvulsive drugs, the new compounds of the present invention are endowed with a good antiarrhythmic activity. In particular the activity in cardiac arrhythmias of N-pyrrolidinoacetyl-2,3-cis, trans-diphenylcyclopropylamine has been studied by experimentally inducing arrhythmias in rats by means of calcium chloride, and in dogs by means of adrenaline.
The experiments with dogs have been performed as follows:
The dog has been anesthetized with chloralose and then administered by intravenous injection with 30 γ/kg of adrenaline. The results were evaluated according to Somani and Lum B. K. B. (J. Pharmacol. Expt. Therap. 1965, 147, 194-202).

[3] = sc, 0.5 h, read-out: M.M.S. ED50
[4] = sc, 0.5 h, new compounds (Table 2), as hydrochlorides, under skin 30 minutes ante, cardiazol 38 mg/kg i.v., read-out: ED50 M.M.S.
[5] = sc, 0.5 h, new compounds (Table 2), as hydrochlorides, under skin 30 minutes ante, read-out: ED50 M.E.S.
[6] = sc, 0.5 h, reference compounds (Table 1), under skin 30 minutes ante, cardiazol 38 mg/kg i.v., read-out: M.M.S. ED50

For CCC1(c2ccccc2)C(=O)NCNC1=O [Primidone, reference compound], the ED50 (male albine Swiss mice [1]; po, Primidone (Table 1), per os 6 hours ante, cardiazol 38 mg/kg i.v., read-out: M.M.S. ED50) was 5.2 mg/kg.
CCC1(c2ccccc2)C(=O)NC(=O)NC1=O [Phenobarbital sodium salt, reference compound] showed an ED50 (male albine Swiss mice [1]; [3]) of 4.5 mg/kg and an ED50 (male albine Swiss mice [2]; sc, 0.5 h, read-out: M.E.S. ED50) of 35 mg/kg.
In the case of C=C[C@H]1C[N@@]2CC[C@H]1C[C@@H]2[C@@H](O)c1ccnc2ccc(OC)cc12 [quinidine], the minimal effective dose (rat; Rattus norvegicus) is reported as 2.5 mg/kg.
CC(C)NCC(O)COc1cccc2ccccc12 (stereo not drawn) [propranolol] gave a minimal effective dose (rat; Rattus norvegicus) of 1 mg/kg.
Work on CCNCC(=O)NC1[C@H](c2ccccc2)[C@H]1c1ccccc1 (relative stereo) [cis-trans, R1 = H, R2 = C2 H5, N-ethylaminoacetyl-2,3-cis,trans-diphenylcyclopropylamine hydrochloride] yielded an LD50 at 72 h (Acute toxicity LD50) of 85 mg/kg, an ED50 (male albine Swiss mice [1]; [4]) of 13 mg/kg and an ED50 (male albine Swiss mice [2]; [5]) of 16.5 mg/kg.
With O=C(CN1CCCCC1)NC1[C@H](c2ccccc2)[C@H]1c1ccccc1 (relative stereo) [cis-trans, N-piperidinoacetyl-2,3-cis,trans-diphenylcyclopropylamine hydrochloride] the LD50 at 72 h (Acute toxicity LD50) was 88 mg/kg, the ED50 (male albine Swiss mice [1]; [4]) was 6 mg/kg and the ED50 (male albine Swiss mice [2]; [5]) was 14.5 mg/kg.
With O=C(CN1CCCC1)N[C@@H]1[C@@H](c2ccccc2)[C@H]1c1ccccc1 [trans-trans, N-pyrrolidinoacetyl-2,3-trans,trans-diphenylcyclopropylamine hydrochloride] the LD50 at 72 h (Acute toxicity LD50) was 266 mg/kg and the ED50 (male albine Swiss mice [2]; [5]) was 87 mg/kg.
For O=C(CN1CCCC1)NC1[C@H](c2ccccc2)[C@H]1c1ccccc1 (relative stereo) [N-pyrrolidinoacetyl-2,3-cis,trans-diphenylcyclopropylamine hydrochloride], the “protection from adrenaline arrhythmia” value (dog; 2 minutes ante adrenaline (30 γ/kg i.v.)) was “completely protected”, the duration of effect (dog; adrenaline arrhythmia) was 60 min and the minimal effective dose (rat; calcium chloride 80 mg/kg i.v., anesthetized rat, drug 90 seconds before calcium chloride) was 2 mg/kg. The duration of activity (rat; rat, calcium chloride arrhythmia, dose 2 mg/kg) was “about 20 minutes”.
For “1.1-dimethyl-3-phenyl-urea [Phenurone, reference compound]”, the “M.M.S. ED50” value (male albine Swiss mice [1]; Phenurone (Table 1), per os 60 minutes ante, cardiazol 38 mg/kg i.v.) was 50 mg/kg and the “M.E.S. ED50” value (male albine Swiss mice [2]; Phenurone (Table 1), per os 60 minutes ante) was 115 mg/kg.
For CCCCN(CCCC)CC(=O)NC1[C@H](c2ccccc2)[C@H]1c1ccccc1 (relative stereo) [cis-trans, R1 = n-C4 H9, R2 = n-C4 H9, N-di-n-butylaminoacetyl-2,3-cis,trans-diphenylcyclopropylamine], the ED50 (male albine Swiss mice [1]; [4]) was over 250 mg/kg and the ED50 (male albine Swiss mice [2]; [5]) was over 250 mg/kg.
Compound CCCN(CCC)CC(=O)NC1[C@H](c2ccccc2)[C@H]1c1ccccc1 (relative stereo) [cis-trans, R1 = n-C3 H7, R2 = n-C3 H7, di-n-propylaminoacetyl-2,3-cis, trans-diphenylcyclopropylamine hydrochloride] has an ED50 (male albine Swiss mice [1]; [4]) of 175 mg/kg and an ED50 (male albine Swiss mice [2]; [5]) of over 100 mg/kg.
CCN(CC)CCOC(=O)c1ccc(N)cc1 [procaine] showed a minimal effective dose (rat; Rattus norvegicus) of 5 mg/kg.
CC(C)N(CC(=O)NC1[C@H](c2ccccc2)[C@H]1c1ccccc1)C(C)C (relative stereo) [N-diisopropylaminoacetyl-2,3-cis,trans-diphenylcyclopropylamine] showed an ED50 (male albine Swiss mice [1]; [4]) of 87 mg/kg and an ED50 (male albine Swiss mice [2]; [5]) of 135 mg/kg.
Compound Cc1ccccc1OCC(O)CO (stereo not drawn) [Mephenesin, reference compound] has an ED50 (male albine Swiss mice [1]; [6]) of 180 mg/kg.
With CCN(CC)CC(=O)NC1[C@H](c2ccccc2)[C@H]1c1ccccc1 (relative stereo) [cis-trans, R1 = C2 H5, R2 = C2 H5, N-dietylaminoacetyl-2,3-cis-trans-diphenylcyclopropylamine] the LD50 at 72 h (Acute toxicity LD50) was 92.5 mg/kg, the ED50 (male albine Swiss mice [1]; [4]) was 12.5 mg/kg and the ED50 (male albine Swiss mice [2]; [5]) was 14.2 mg/kg.
Work on CN(C)CC(=O)NC1[C@H](c2ccccc2)[C@H]1c1ccccc1 (relative stereo) [cis-trans, R1 = CH3, R2 = CH3, N-dimethylaminoacetyl-2,3-cis,trans-diphenylcyclopropylamine] yielded an ED50 (male albine Swiss mice [1]; [4]) of 16 mg/kg and an ED50 (male albine Swiss mice [2]; [5]) of 16.5 mg/kg.
Work on CCC1(C)CC(=O)NC1=O (stereo not drawn) [Ethosuximide, reference compound] yielded an ED50 (male albine Swiss mice [1]; [6]) of 50 mg/kg.
Compound O=C(CN1CCCC1)NC1[C@H](c2ccccc2)[C@H]1c1ccccc1 (relative stereo) [cis-trans, N-pyrrolidinoacetyl-2,3-cis,trans-diphenylcyclopropylamine] has an LD50 at 72 h (Acute toxicity LD50) of 67.5 mg/kg, an ED50 (male albine Swiss mice [1]; [4]) of 5.6 mg/kg and an ED50 (male albine Swiss mice [2]; [5]) of 9 mg/kg.
In the case of CNCC(=O)NC1[C@H](c2ccccc2)[C@H]1c1ccccc1 (relative stereo) [cis-trans, R1 = H, R2 = CH3, N-methylaminoacetyl-2,3-cis,trans-diphenyl-cylcopropylamine hydrochloride], the LD50 at 72 h (Acute toxicity LD50) is reported as 112 mg/kg, the ED50 (male albine Swiss mice [1]; [4]) is reported as 30 mg/kg and the ED50 (male albine Swiss mice [2]; [5]) is reported as 25.5 mg/kg.
In the case of CN1C(=O)OC(C)(C)C1=O [Trimethadione, reference compound], the ED50 (male albine Swiss mice [1]; [3]) is reported as 175 mg/kg.
Work on O=C1NC(=O)C(c2ccccc2)(c2ccccc2)N1 [Phenitoine Sodium salt, reference compound] yielded an ED50 (male albine Swiss mice [1]; iv, Phenitoine sodium salt (Table 1), route and time not stated, cardiazol 38 mg/kg i.v., read-out: M.M.S. ED50) of 7.1 mg/kg and an ED50 (male albine Swiss mice [2]; Phenitoine sodium salt (Table 1), route and time not stated, read-out: M.E.S. ED50) of 15 mg/kg.
